Laboratory results reported in PubChem BioAssay AID1996.
≈ marks a conversion by molar mass, not a printed value.

Details: buffer; pH 7.4; 200.0 µM

Compound | solubility kinetic [µg/mL]
CC(=O)NCC1COc2ccccc2O1 (stereo not given) | > 31.1
CC(=O)N1CCN(Cc2nc3cc(Cl)ccc3c(=O)[nH]2)CC1 | > 48.1
CN[C@H]1CC[C@@H](c2ccc(Cl)c(Cl)c2)c2ccccc21 | > 45.9
Cc1cc(C(=O)OCC(=O)NCc2ccccc2Cl)c(C)o1 | 2.2 (≈ 6.84 µM)
Cc1nc2ccc(NC(=O)c3ccc(Br)o3)cc2s1 | 5.1 (≈ 15.1 µM)
CN(C)CCCN1C(=O)CSC1c1ccc([N+](=O)[O-])cc1.Cl (stereo not given) | 47.6
Cc1cc(C)n2nc(SCC(=O)Nc3ccc(F)cc3[N+](=O)[O-])nc2n1 | > 56.5
O=C(COC(=O)Cc1ccc(Br)cc1)NC1CCCC1 | > 51
Cc1cnc(NC(=O)CCN2C(=O)C3CCCCC3C2=O)s1 (stereo not given) | 39.3 (≈ 122 µM)
Cc1ccc(NC(=O)C2CC(=O)N(CCc3ccccc3)C2)c(C)c1 (stereo not given) | 42 (≈ 125 µM)
Cn1c(-c2ccccc2)c(C=O)c2ccccc21 | 19.5 (≈ 82.9 µM)
O=C(NCc1ccc2c(c1)OCO2)C(=O)Nc1ccccc1 | 0.5 (≈ 1.68 µM)
Cc1cc(C)c(N=Cc2c(O)c3ccccc3oc2=O)c(C)c1 | < 0.7
O=C(NCC(=O)N1CCN(c2ccc([N+](=O)[O-])cc2)CC1)c1ccco1 | 11.4 (≈ 31.8 µM)
CN1CCN(c2oc(/C=C/c3ccccc3)nc2C#N)CC1 | 40.3 (≈ 137 µM)
CCCCCCCCCCCC(=O)N1CC(=O)NC(=O)C1 | 2.5 (≈ 8.43 µM)
O=C(Nc1ncccc1O)c1ccc2c(c1)OCCO2 | > 40.8
O=C(NC(=S)NC1C2CC3CC(C2)CC1C3)c1ccccc1 (stereo not given) | < 0.3
COc1ccc(C)cc1NC(=S)NN1CCN(C)CC1 | > 44.2
CCN(CC)c1ccc(/C=C2\SC(N)=NC2=O)cc1 | < 0.2
CC(CCc1ccccc1)NC(=O)c1ccc(Br)cc1 (stereo not given) | 1.1 (≈ 3.31 µM)
CSc1ncccc1C(=O)Nc1cccc(S(=O)(=O)N2CCCCCC2)c1 | 11.2 (≈ 27.6 µM)

Compound | solubility kinetic [µg/mL]
CCOC(=O)Cc1csc(NC(=O)CCSc2ccccc2)n1 | 38.5 (≈ 110 µM)
CC(NC(=O)COC(=O)c1cc(Cl)nc(Cl)c1)c1ccccc1 (stereo not given) | > 53
Nc1cc(=O)[nH]c(SCCSc2ccc(F)cc2)n1 | 6.2 (≈ 20.8 µM)
O=C(COC(=O)/C=C/c1cccc(Br)c1)NC1CCCC1 | 4.1 (≈ 11.6 µM)
Clc1ccc(-c2cnc3n2CCCCC3)cc1 | > 37
Cc1ccc(N(CN2CCCC2=O)C(=O)c2ccccc2)cc1 | > 46.3
COc1ccccc1NC(=O)/C(C#N)=C/c1ccncc1 | 36 (≈ 129 µM)
Cc1ccc(C)c(SCC(=O)N(C)C2CCS(=O)(=O)C2)c1 (stereo not given) | > 49.1
COc1ccc(S(=O)(=O)NCc2cccnc2)cc1OC | > 46.3
CC(C)Nc1nc2cccnc2s1 | > 29
N#Cc1ccc(OCC(=O)OCC(=O)c2ccccc2)cc1 | > 44.3
COc1cccc(C(=O)Nc2ccccc2OC(F)(F)F)c1 | 30.6 (≈ 98.3 µM)
Cc1ccc(OCCC(=O)OCC(=O)Nc2cc(C)cc(C)c2)cc1 | 4.3 (≈ 12.6 µM)
Cc1ccc(S(=O)(=O)N2CCOCC2)cc1C(=O)N1CCCC1 | > 50.8
C=Cc1cccc(NC(=O)c2ccc(NC(=O)c3ccco3)cc2)c1 | 3.1 (≈ 9.33 µM)
COc1ccc(CCN2C(=O)CSC2c2ccc(F)cc2)cc1 (stereo not given) | 34.4 (≈ 104 µM)
O=C(Oc1ccc(C(=S)N2CCOCC2)cc1)c1ccc(F)cc1 | 2.8 (≈ 8.11 µM)
O=C(OCC(=O)N1CCOCC1)c1ccc(Cl)cc1[N+](=O)[O-] | 48.3 (≈ 147 µM)
O=S(=O)(c1cccs1)N1CN(C2CCCC2)c2nc3ccccc3nc21 | 8.1 (≈ 21 µM)
C=CCOc1ccc(CN(C)CC(O)COc2cccc3ccccc23)cc1 (stereo not given) | 19.5 (≈ 51.7 µM)
COc1ccc(CCNC(=O)CCNC(=O)c2ccco2)cc1 | > 47.5
COc1cccc(NC(=O)CSc2nnc(-c3cccnc3)o2)c1 | > 51.4

Compound | solubility kinetic [µg/mL]
Cc1ccc2c(c1)N(CC(=O)N1CCCCC1C)C(=O)CO2 (stereo not given) | > 45.4
COc1ccccc1N(CC1CO1)S(=O)(=O)c1ccc(C)cc1 (stereo not given) | 47.5 (≈ 142 µM)
COc1ccc(CCNS(=O)(=O)c2ccc3c(c2)CCCC3)cc1OC | 28.2 (≈ 75.1 µM)
Cc1cc(NC(=O)NC(C(F)(F)F)C(F)(F)F)no1 | 22.7 (≈ 78 µM)
CC(C(=O)NC1CCCC1)N1CCN(Cc2ccccc2)CC1 (stereo not given) | > 47.3
COc1ccc(S(=O)(=O)N2CCOCC2)cc1NC(=O)CN(C)CC(=O)Nc1cccc(F)c1 | > 74.2
CCCCCOc1ccc(C(=O)CCC(=O)N2CCCC2)cc1 | > 47.6
CCCCC(=O)N1CC(=O)Nc2ccc(F)cc2C1c1ccc(F)cc1 (stereo not given) | > 53.8
Oc1ccc(-c2nccc(-c3ccc(F)cc3)n2)cc1 | 2.1 (≈ 7.89 µM)
CCc1cccc(C)c1NC(=O)N(C)C1CCCCC1 | 35.6 (≈ 130 µM)
CC1(C)Cc2cccc(OCC(=O)NCc3cccs3)c2O1 | > 47.6
COc1ccc2c(c1)c(C(=O)O)c(C)n2CCc1ccc(OC)c(OC)c1 | > 55.4
Cc1cccc(C)c1NC(=O)CNC(=O)CNC(=O)c1ccc2c(c1)OCO2 | > 57.5
O=C(c1ccco1)N1CCn2cccc2C1c1ccccc1 (stereo not given) | 42 (≈ 144 µM)
Cc1cc(C(=O)c2cnc(/N=C/N(C)C)s2)c(F)cc1Cl | 13.6 (≈ 41.7 µM)
COCCn1c(-c2ccc(F)cc2)nc2cccnc21 | 36.1 (≈ 133 µM)
Cc1cn(CCOc2ccc(Cl)cc2)c(=O)[nH]c1=O | 36.8 (≈ 131 µM)
O=c1c2[nH]cnc2n(-c2ccc(F)cc2)c(=O)n1Cc1ccccc1 | > 50.4
O=C(COc1ccccc1F)NC12CC3CC(CC(C3)C1)C2 | 6.6 (≈ 21.8 µM)
O=S(=O)(NC(=S)c1ccccc1)c1ccc(F)cc1 | > 44.3
CC1(C)C(=O)Nc2ccccc2N1C(=O)COC(=O)c1ccc([N+](=O)[O-])o1 | 12.1 (≈ 32.4 µM)
O=C(C1CCCCC1)N1CCc2ccccc21 | 27.2 (≈ 119 µM)

Compound | solubility kinetic [µg/mL]
CC(=O)Nc1ccc(/C=C/c2nc3ccccc3o2)cc1 | 8.7 (≈ 31.3 µM)
O=C(O)c1ccc(SCc2ccccc2)nc1 | > 36.8
O=C(/C=C/c1ccccc1[N+](=O)[O-])Nc1cccc(S(=O)(=O)NC2=NCCCCC2)c1 | 14.4 (≈ 32.5 µM)
COc1ccc(Cl)cc1NC(=O)CN(C)C(=O)c1cccc2cccnc12 | 48.5 (≈ 126 µM)
CC(C)[C@H](NC(=O)c1ccccc1Cl)C(=O)OCC(=O)N1CCCCC1 | > 57.1
Cc1cccc(NC(=O)c2ccc(N3CCOCC3)c([N+](=O)[O-])c2)n1 | 38.1 (≈ 111 µM)
C=Cn1ccnc1P(=S)(c1ccc(Cl)cc1)c1nccn1C=C | 46.9 (≈ 130 µM)
O=CC(Cl)P(=O)(N1CCOCC1)N1CCOCC1 (stereo not given) | 32.5 (≈ 110 µM)
N#CCc1nc2ccc(S(=O)(=O)N3CCOCC3)cc2s1 | 37.2 (≈ 115 µM)
Cc1cc(C(=O)CCC(=O)NCC(=O)Nc2c(C)cccc2C)c(C)s1 | > 55.9
Cc1cccc(N=C2NC(=O)/C(=C/c3cccnc3)S2)c1C | 5.1 (≈ 16.5 µM)
O=C(NC(=S)NCCCN1CCOCC1)c1ccco1 | > 44.6
O=S(=O)(c1ccccc1)N1CCNCC1 | 26.6 (≈ 118 µM)
O=CN1CCN(C(=O)c2cccc3c2-c2ccccc2C3=O)CC1 | > 48.1
Cc1ccc(NC(=O)C2CCCN2C(=O)OC(C)(C)C)cc1C (stereo not given) | > 47.8
O=C1COc2ccc(C(=O)COC(=O)c3ccccn3)cc2N1 | 16.9 (≈ 54.1 µM)
O=C(NC1CCN(C(=O)Nc2cccc(Cl)c2)CC1)c1ccccc1 | 0.4 (≈ 1.12 µM)
CC(=O)c1c(C)[nH]c(C(=O)O)c1C | > 27.2
COC(=O)c1cc(Cl)nc2ccccc12 | 7.9 (≈ 35.6 µM)
